ChEMBL document CHEMBL3507680, “University of Dundee, Gates Library screen for HepG2 cell viability”

test: Human HepG2 cell viability assay in 384 well format; format: toxicity, cell-based; parameters: dose 125 nL, time 70.5 hour; cytotoxicity at 70.5 h: concentration not given beside the values; conditions: HepG2 cells, read-out: Inhibition

In order of rising cytotoxicity at 70.5 h:
1. O=C(OCC1CCN(c2ccccc2)C1)c1cscn1 (stereo not given)  -103%
2. CN1CCN(Cc2nnc(C3CCN(C4CCCCC4)CC3)n2C)CC1  -27.4%
3. O=C(NCC1(O)CCCC1)c1ccc2nsnc2c1  -20.9%
4. CCc1nc(C2CCCN2Cc2nc3ccccc3o2)no1 (stereo not given)  -17.9%
5. CCOc1ccc(Cl)cc1C1CCCCN1 (stereo not given)  -17.3%
6. COc1cccc(S(=O)(=O)N2C[C@@H](O)[C@H](N(C)C)C2)c1  -15.9%
7. Cc1nc2ncnn2c(C)c1CCC(=O)Nc1cccn(C)c1=O  -15.3%
8. COCCCN1CCCC(c2nccn2CC2CCC2)C1 (stereo not given)  -15%
9. COc1cccc(OC)c1C(C(=O)O)N(C)Cc1c(C)n[nH]c1C (stereo not given)  -14.8%
10. CSCC(=O)N1CCOC(c2nc(C)n[nH]2)C1 (stereo not given)  -12.3%
11. CNC(=O)C1CCCCN1C(=O)C1CCN(S(C)(=O)=O)CC1 (stereo not given)  -11.7%
12. Fc1cccc(-c2nccnc2C2CCCNC2)c1 (stereo not given)  -11.7%
13. Cc1ccccc1CS(=O)(=O)CC(=O)NC1CCCCNC1=O (stereo not given)  -11.3%
14. Cc1cccc2c1OCCC2NCc1c(C(C)C)nn(C)c1N(C)C (stereo not given)  -10.6%
15. O=C(c1c[nH]nn1)N1CCN(C(c2ccccc2)C(F)(F)F)CC1 (stereo not given)  -10.3%
16. Cn1cc(C2CCCN2C(=O)c2ccc(Br)o2)cn1 (stereo not given)  -10.2%
17. CCN(CCc1nccs1)C(=O)c1sccc1C  -9.19%
18. Cc1cccc(C2CCCCCN2Cc2cn(C)nc2C)c1 (stereo not given)  -9.15%
19. O=C(c1ccccn1)N1CCC2(CC1)COC(COCC1CC1)C2 (stereo not given)  -8.98%
20. Oc1cc(-c2nccs2)nc(C2CCN(Cc3cccs3)CC2)n1  -8.93%
21. CN1CC2(CCN(Cc3cc(Cl)ccc3OCC(=O)O)CC2)OC1=O  -8.9%
22. COc1ccc(C(=O)N2CC[C@](C)(O)[C@H](C)C2)cc1N1CCOCC1  -8.2%
23. Cn1cc(CN2CCCC(Cn3cc(CCCO)nn3)C2)cn1 (stereo not given)  -7.9%
24. Cc1nc(C(=O)N2CCCCC2)nn1-c1ccccc1Cl  -7.71%
25. Cc1cc2c(cc1C(=O)N1CC[C@H](CO)[C@@H](O)C1)OCCO2  -7.62%
26. CN1CCCN(C(=O)c2csc(-c3ccc(C(F)(F)F)cc3)n2)CC1  -7.23%
27. Cc1nc(C(=O)N2CC[C@@]3(C[C@H](NS(C)(=O)=O)CCO3)C2)cs1  -7.15%
28. Cc1ccc(CN2CC3(CCN(C(=O)c4cscn4)C3)C2)s1  -7.12%
29. CC(C)NC(=O)C1CN(C(=O)Nc2cccc(F)c2)CC12CCOCC2 (stereo not given)  -6.98%
30. CCCOc1ccc2c(c1)OCC(CNC1CCc3ncnn3C1)=C2 (stereo not given)  -6.97%
31. Cc1cc(C(=O)N(C)C)nc(C2(C)CCCN2c2ccnc(C)n2)n1 (stereo not given)  -6.87%
32. COc1ccc(CNC(=O)NCC(O)(c2cccs2)C2CC2)cc1 (stereo not given)  -6.74%
33. CC(C)c1nc(CN(C)C(=O)CNC(N)=O)cs1  -6.72%
34. CCOC(=O)[C@@H]1[C@@H](c2ccccc2)CN2CCN(S(C)(=O)=O)C[C@H]12  -6.56%
35. Cc1occc1C(=O)NCc1ccc(N2CCCC(C(N)=O)C2)cc1 (stereo not given)  -6.48%
36. CCc1ccc(C(NCC(N)=O)C(C)(C)C)o1 (stereo not given)  -6.31%
37. CCOc1ccc(C(=O)CCC(=O)N(C)Cc2noc(C)n2)cc1C  -6.08%
38. Cc1nn(C)c2cnn(Cc3ccc(C(=O)NC4CC4)cc3)c12  -5.97%
39. CCCOC1CCCN(Cc2nc(-c3ccc(F)cc3F)oc2C)C1 (stereo not given)  -5.84%
40. Cc1nnc([C@H]2CC[C@@H]3[C@@H](CCN3Cc3c(C)noc3C)O2)o1  -5.84%
41. Cc1ccc(O)c(CN2CCc3nc(-c4cccnc4)nc(O)c3C2)c1  -5.78%
42. CC(C)CN1CCS(=O)(=O)[C@@H]2CCN(S(=O)(=O)N(C)C)CC[C@@H]21  -5.76%
43. Cc1nc2n(n1)CC(NCc1nc(-c3ccccn3)no1)CC2 (stereo not given)  -5.58%
44. CC(=O)N1CC[C@H]2OCC[C@@]2(C(=O)NCc2cnc(C)cn2)C1  -5.25%
45. COCCNC(=O)N1CCN(C(C)C(=O)NC(C)C)CC1 (stereo not given)  -5.13%
46. Cc1nc(C)n(C2CCCN(C(=O)c3ccc(F)cc3F)C2)n1 (stereo not given)  -4.94%
47. Cc1cnn(CC2CN(Cc3nc4ccccc4c(=O)[nH]3)CCO2)c1 (stereo not given)  -4.67%
48. CC1CCN(C(=O)c2sccc2-n2cnnn2)CC1  -4.67%
49. COc1ccc(OC)c(-n2cnnc2CCN)c1  -4.57%
50. CN1CCCC(C(=O)N2CCC(Oc3ncccn3)CC2)C1 (stereo not given)  -4.47%
51. Cc1cccc(COC[C@H]2CC[C@H]3[C@H](CCN3Cc3ccco3)O2)n1  -4.41%
52. Cc1ccc(N2CC[C@@H]3CN(Cc4cccc(C)n4)C[C@@H]3C2)nn1  -4.34%
53. CN(C)Cc1nnc(C(=O)N(C)Cc2ccc(F)cc2)o1  -4.17%
54. COc1cccc(CC(=O)N2CCC(O)(C(F)(F)F)C2)c1 (stereo not given)  -4.06%
55. CC(C)NC(=O)NCCn1nc(C(F)(F)F)n(C)c1=O  -4.05%
56. Cc1ccc(Cc2sc(NC(=O)C(C)S(C)(=O)=O)nc2C)cc1 (stereo not given)  -3.98%
57. CN(C)S(=O)(=O)CCCOc1cccc(-n2ccnc2)c1  -3.93%
58. CN1C(=O)C2(CCN(Cc3cccnc3)CC2)c2cccc(F)c21  -3.56%
59. O=C(NS(=O)(=O)Cc1ccon1)c1ccsc1  -3.39%
60. Cc1cc(N(C)CCC(O)c2ccccc2)n2nccc2n1 (stereo not given)  -3.24%
61. Cc1nc(C(C)C)ncc1C(=O)N1CCC(c2ccccc2C(=O)O)C1 (stereo not given)  -3.24%
62. Cc1cc(N(C)C)nc(N2CCCC2c2ccccn2)n1 (stereo not given)  -3.12%
63. COC(=O)C1CN(Cc2cc(F)ccc2Br)CCO1 (stereo not given)  -3.09%
64. Cc1ccc(=O)n(CC2(O)CCN(Cc3ccoc3)CC2)n1  -3.06%
65. Cc1ccc(CNCc2c(C)nn(C)c2N(C)C)cn1  -3.06%
66. COCCN1CCN(Cc2nccs2)[C@H]2CS(=O)(=O)C[C@H]21  -2.69%
67. Cc1ccc2c(c1)C1(CCNCC1)CC2NC(C)C (stereo not given)  -2.54%
68. COC(=O)C1CCN(CC2(c3ccc(C)cn3)CCNCC2)CC1  -2.35%
69. CN(C)c1cc(C(=O)Nc2ccccc2C(=O)NC(C)(C)C)ccn1  -2.3%
70. Cc1cnn(CC2CCCN2Cc2nnc(C)o2)c1 (stereo not given)  -2.26%
71. COc1cccc(C(=O)N2CCc3c(nc(N)[nH]c3=O)C2)c1OC  -2.24%
72. CC(=O)N1N=C(c2ccccc2)OC1C(=O)NCC(=O)OC(C)(C)C (stereo not given)  -2.16%
73. COCCOc1cccc(CNCc2c(C)nn(C)c2N(C)C)c1  -2.1%
74. CCCN1CCC(c2nc3ccc(NCc4ccccc4)cn3n2)CC1  -1.96%
75. CS(=O)(=O)CCCSCc1ccc(Br)c(F)c1  -1.93%
76. CCOc1ccccc1OC1CCN(C(=O)c2cnsn2)CC1  -1.79%
77. O=C(c1cccnc1N1CCN(CCO)CC1)N1CCCC1  -1.63%
78. CCOCCN1CCN(Cc2coc(-c3cccc(F)c3)n2)CC1  -1.54%
79. CC(C)N1CCc2[nH]nc(C(=O)N3CCN(C)CC3)c2C1  -1.5%
80. Cc1nc(C2(NCc3ccc(C#N)cc3F)CCCCC2)no1  -1.37%
81. COCCN(Cc1coc(-c2ccc(OC)cc2)n1)C1CC1  -1.17%
82. O=C(CCC1CCCCC1)NCc1nnc2ccccn12  -1.08%
83. Cc1csc(N2CCN(CCCN3CCCC3=O)CC2)n1  -0.2%
84. CCC(CO)NCc1ccc(-c2ccc(Br)cc2)o1 (stereo not given)  0.103%
85. c1nc(CCC2CCCN2)cc(N2CCCCCC2)n1 (stereo not given)  0.142%
86. CC(=O)N1CC[C@@H]2CN(Cc3ccncc3)S(=O)(=O)[C@@H]2CC1  0.262%
87. COCCN(CCOC)C(=O)c1cnn(C)c1-n1c(C)ccc1C  1.05%
88. CCc1nc(CNc2ccc(F)cc2I)no1  2.16%
89. COc1cc(OC)c2nc(NCCN3CCNC3=O)cc(C)c2c1  2.59%
90. COCCN(CC(C)C)c1cc(C)ncn1  6.75%
91. CCN(CC)c1ncc(CNCC2CCCn3ccnc32)s1 (stereo not given)  8.16%
92. Nc1cc2c(nn1)CCN(C(=O)Cc1ccc3c(c1)CCO3)C2  9.71%
93. COCC1CN(C(C)=O)CCN(c2cc(C)ncn2)C1 (stereo not given)  10.4%
94. CO[C@H]1C[C@@H]2CN(C(=O)c3n[nH]c4c3CCCC4)C[C@@H]2C1  11%
95. O=C(CCN1CCOC(CNc2cccnn2)C1)NC1CCCCC1 (stereo not given)  11.1%
96. Cc1c[nH]nc1C1CCN(C(=O)C2CCOCC2)C1 (stereo not given)  12.3%
97. CCS(=O)(=O)N1CCc2c(cccc2NC(=O)NCCO)C1  12.8%
98. Cn1cc(C(=O)N2CCN(Cc3ccsc3)CC2)cn1  14.2%
99. COc1cccc(N2CC3(CCN(c4ccncn4)C3)CC2=O)c1 (stereo not given)  14.6%
100. COc1c(NC(=O)N(C)CCOc2ccccc2)c(C)nn1C  15.1%
101. Cc1ccc(CNCC2Cn3nnc(-c4cnn(C)c4)c3CO2)o1 (stereo not given)  15.6%
102. Cc1ccc(C)c(S(=O)(=O)CCN2CCc3c(ncn3C)C2)c1  16%
103. O=C(Nc1ccc(N2CCCCC2)nc1)N1CCc2sccc2C1  16.2%
104. CS(=O)(=O)N1CCCCC1CCc1ccc(O)cc1 (stereo not given)  16.6%
105. CC(NCCCn1ccnc1)c1ccc(N2CCOC2=O)cc1 (stereo not given)  16.7%
106. Cc1ccc2c(c1C)OCC2NCc1ccc(C#N)cc1 (stereo not given)  16.8%
107. CC(C)NC(=O)CC1COC2(CCN(Cc3ccco3)CC2)C1 (stereo not given)  18%
108. CS(=O)(=O)c1ccccc1C(=O)NCCCN1CCc2ccccc2C1  18.5%
109. CC1(C)CC(NC(=O)c2cnn(-c3ccccc3F)c2N)CC(C)(C)N1  19.7%
110. COc1c(C(=O)NCc2cnn(C)c2C)nnn1Cc1ccccc1  23%
111. CCC(NCc1ccccc1C)c1ccccc1OCC(=O)NC (stereo not given)  25.2%
112. CCc1cc(C(=O)N2CC[C@@H](c3ccc4c(c3)OCO4)[C@H](O)C2)[nH]n1  25.7%
113. CCOCCCNC(=O)c1cc(C(C)C)nc(N2CCCCCC2)n1  26.5%
114. c1ccc(CN2CCC(NCCSc3ncn[nH]3)C2)cc1 (stereo not given)  30.4%
115. CCn1ccnc1CN1CCN(C(C)C(=O)NC2CCCCC2)CC1 (stereo not given)  33.2%
